This passage reports IC50 results from patent US8889712B2, “IAP antagonists” (Bristol-Myers Squibb Company, priority 2012, dated 2014).

Where two headings read alike, the source gives them in different places.

One assay deals with T1, XIAP BIR2-3 (Homo sapiens, UniProt P98170, C202A/C213G).
T1 construct: His-BIR2-3 (125-356, C202A/C213G, XIAP)
Description: XIAP-BIR2-3 dimeric SMAC Peptide Homogeneous Time Resolved Fluorescence (HTRF) Assay. In kind it is binding. The procedure: B. […] Assays were performed in black, flat-bottom, 384-well plates. […] Compounds were dissolved at 3 mM in dimethylsulfoxide (DMSO) and evaluated at eleven serially diluted concentrations. IC50 and Ki values were derived by non-linear regression analysis.

The target in a further assay is T2, XIAP BIR3 (Homo sapiens, UniProt P98170).
T2 construct: His-BIR3 (241-356, XIAP)
T2 sequence (P98170 241-356): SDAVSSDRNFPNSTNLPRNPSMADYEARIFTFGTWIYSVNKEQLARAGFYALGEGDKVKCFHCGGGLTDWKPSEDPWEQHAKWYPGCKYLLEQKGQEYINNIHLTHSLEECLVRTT
As to the kind of experiment: XIAP-BIR3/SMAC Homogeneous Time Resolved Fluorescence (HTRF) Assay. In kind it is binding. The procedure: A. XIAP-BIR3/SMAC Homogeneous Time Resolved Fluorescence (HTRF) Assay Assays were performed in black, flat-bottom, 384-well plates. […] The reaction was incubated at room temperature for 60 minutes, following which 10 μl of mouse anti-6×His-terbium labeled Fab (Medarex, Cis-bio) was added to the reaction (40 μl) for an additional 30 minute incubation. […] Compounds were dissolved at 3 mM in dimethylsulfoxide (DMSO) and evaluated at eleven serially diluted concentrations. IC50 and Ki values were derived by non-linear regression analysis.

Where [1] appears, read: 0.5 nM N-His-BIR2-3 (125-356, C202A/C213G, XIAP), 20 nM fluorescein labeled dimeric SMAC peptide, HTRF signal, read-out: XIAP BIR2-3 IC50.
[2] abbreviates: 1 nM N-His-BIR3 (241-356, XIAP), 5 nM fluorescein labeled SMAC peptide, HTRF signal, read-out: XIAP BIR3 IC50.

T1 sequence (P98170 125-356 C202A/C213G): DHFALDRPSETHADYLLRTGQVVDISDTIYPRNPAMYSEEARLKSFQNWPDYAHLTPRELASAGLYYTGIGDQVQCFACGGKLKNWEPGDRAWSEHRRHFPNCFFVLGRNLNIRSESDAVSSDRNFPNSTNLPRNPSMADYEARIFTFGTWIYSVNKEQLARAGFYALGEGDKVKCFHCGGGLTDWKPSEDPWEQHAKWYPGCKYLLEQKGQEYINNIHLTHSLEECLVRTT

The IC50 is the point on the concentration scale where inhibition reaches its midpoint. With `CCN[C@@H](C)C(=O)N[C@H](C(=O)N1Cc2cc(C(=O)N[C@H]3C[C@@H](C(=O)N[C@@H]4CCCc5ccccc54)N(C(=O)[C@@H](NC(=O)[C@H](C)NC)C(C)(C)C)C3)ccc2C[C@H]1C(=O)N[C@@H]1CCCc2ccccc21)C(CC)CC` [Example 18, (S)-N^7-((3S,5S)-1-((S)-3,3-Dimethyl-2-((S)-2-(methylamino)propanamido)butanoyl)-5-(((R)-1,2,3,4-tetrahydronaphthalen-1-yl)carbamoyl)pyrrolidin-3-yl)-2-((S)-3-ethyl-2-((S)-2-(ethylamino)propanamido)pentanoyl)-N^3-((R)-1,2,3,4-tetrahydronaphthalen-1-yl)-1,2,3,4-tetrahydroisoquinoline-3,7-dicarboxamide], the results for the 50% inhibitory concentration (IC50) on XIAP BIR2-3 (setting [1]) and on XIAP BIR3 (setting [2]) were 4 nM and 9 nM, respectively.

Turning to `CCC(CC)[C@H](NC(=O)[C@H](CC)NC)C(=O)N1Cc2cc(C(=O)N[C@H]3C[C@@H](C(=O)N[C@@H]4CCCc5ccccc54)N(C(=O)[C@@H](NC(=O)[C@H](C)NC)C(C)(C)C)C3)ccc2C[C@H]1C(=O)N[C@@H]1CCCc2ccccc21` [Example 19, (S)-N^7-((3S,5S)-1-((S)-3,3-Dimethyl-2-((S)-2-(methylamino)propanamido)butanoyl)-5-(((R)-1,2,3,4-tetrahydronaphthalen-1-yl)carbamoyl)pyrrolidin-3-yl)-2-((S)-3-ethyl-2-((S)-2-(methylamino)butanamido)pentanoyl)-N^3-((R)-1,2,3,4-tetrahydronaphthalen-1-yl)-1,2,3,4-tetrahydroisoquinoline-3,7-dicarboxamide], the IC50 at XIAP BIR2-3 (setting [1]) was determined as 2 nM; on XIAP BIR3 (setting [2]), 7 nM.

For `CN[C@@H](C)C(=O)N[C@H](C(=O)N1Cc2cc(N[C@H]3C[C@@H](C(=O)N[C@@H]4CCCc5ccccc54)N(C(=O)[C@@H](NC(=O)[C@H](C)NC)C(C)(C)C)C3)ccc2C[C@H]1C(=O)N[C@@H]1CCCc2ccccc21)C(C)(C)C` [Example 20, (S)-2-((S)-3,3-Dimethyl-2-((S)-2-(methylamino)propanamido)butanoyl)-7-(((3S,5S)-1-((S)-3,3-dimethyl-2-((S)-2-(methylamino)propanamido)butanoyl)-5-(((R)-1,2,3,4-tetrahydronaphthalen-1-yl)carbamoyl)pyrrolidin-3-yl)amino)-N—((R)-1,2,3,4-tetrahydronaphthalen-1-yl)-1,2,3,4-tetrahydroisoquinoline-3-carboxamide], the values for the half-inhibitory concentration (IC50) on XIAP BIR2-3 and at XIAP BIR3 were 3 nM and 13 nM, respectively.

Consider `CN[C@@H](C)C(=O)N[C@H](C(=O)N1Cc2cc(O[C@H]3C[C@@H](C(=O)N[C@@H]4CCCc5ccccc54)N(C(=O)[C@@H](NC(=O)[C@H](C)NC)C(C)(C)C)C3)ccc2C[C@H]1C(=O)N[C@@H]1CCCc2ccccc21)C(C)(C)C` [Example 21, (S)-2-((S)-3,3-Dimethyl-2-((S)-2-(methylamino)propanamido)butanoyl)-7-(((3S,5S)-1-((S)-3,3-dimethyl-2-((S)-2-(methylamino)propanamido)butanoyl)-5-(((R)-1,2,3,4-tetrahydronaphthalen-1-yl)carbamoyl)pyrrolidin-3-yl)oxy)-N—((R)-1,2,3,4-tetrahydronaphthalen-1-yl)-1,2,3,4-tetrahydroisoquinoline-3-carboxamide], for which the IC50 turned out to be 3 nM at XIAP BIR2-3 and 30 nM on XIAP BIR3.

For `CN[C@@H](C)C(=O)N[C@H](C(=O)N1Cc2cc([C@H]3C[C@@H](C(=O)N[C@@H]4CCCc5ccccc54)N(C(=O)[C@@H](NC(=O)[C@H](C)NC)C(C)(C)C)C3)ccc2C[C@H]1C(=O)N[C@@H]1CCCc2ccccc21)C(C)(C)C` [Example 22, (S)-2-((S)-3,3-Dimethyl-2-((S)-2-(methylamino)propanamido)butanoyl)-7-((3R,5S)-1-((S)-3,3-dimethyl-2-((S)-2-(methylamino)propanamido)butanoyl)-5-(((R)-1,2,3,4-tetrahydronaphthalen-1-yl)carbamoyl)pyrrolidin-3-yl)-N—((R)-1,2,3,4-tetrahydronaphthalen-1-yl)-1,2,3,4-tetrahydroisoquinoline-3-carboxamide], the results for the half-inhibitory concentration (IC50) against XIAP BIR2-3 and against XIAP BIR3 were 1 nM and 2 nM, respectively.

For the compound `CN[C@@H](C)C(=O)N[C@H](C(=O)N1Cc2cc([C@H]3C[C@@H](C(=O)N[C@@H]4CCCc5ccccc54)N(C(=O)[C@@H](NC(=O)[C@H](C)NC)C(C)(C)C)C3)ccc2C[C@H]1C(=O)N[C@H](C)c1ccccc1F)C(C)(C)C` [Example 23, (S)-2-((S)-3,3-Dimethyl-2-((S)-2-(methylamino)propanamido)butanoyl)-7-((3R,5S)-1-((S)-3,3-dimethyl-2-((S)-2-(methylamino)propanamido)butanoyl)-5-(((R)-1,2,3,4-tetrahydronaphthalen-1-yl)carbamoyl)pyrrolidin-3-yl)-N—((R)-1-(2-fluorophenyl)ethyl)-1,2,3,4-tetrahydroisoquinoline-3-carboxamide], the values for the IC50 on XIAP BIR2-3 (setting [1]) and at XIAP BIR3 (setting [2]) were 3 nM and 4 nM, respectively.

With `CN[C@@H](C)C(=O)N[C@H](C(=O)N1Cc2cc([C@H]3C[C@@H](C(=O)N[C@@H]4CCCc5ccccc54)N(C(=O)[C@@H](NC(=O)[C@H](C)NC)C(C)(C)C)C3)ccc2C[C@H]1C(=O)N[C@@H]1CCCc2ccccc21)C1CCOCC1` [Example 24, (S)-7-((3R,5S)-1-((S)-3,3-Dimethyl-2-((S)-2-(methylamino)propanamido)butanoyl)-5-(((R)-1,2,3,4-tetrahydronaphthalen-1-yl)carbamoyl)pyrrolidin-3-yl)-2-((S)-2-((S)-2-(methylamino)propanamido)-2-(tetrahydro-2H-pyran-4-yl)acetyl)-N—((R)-1,2,3,4-tetrahydronaphthalen-1-yl)-1,2,3,4-tetrahydroisoquinoline-3-carboxamide], the IC50 was determined as 1 nM on XIAP BIR2-3 (setting [1]) and 3 nM at XIAP BIR3 (setting [2]).

As for `CN[C@@H](C)C(=O)N[C@H](C(=O)N1Cc2ccc(C(=O)N[C@H]3C[C@@H](C(=O)N[C@@H]4CCCc5ccccc54)N(C(=O)[C@@H](NC(=O)[C@H](C)NC)C(C)(C)C)C3)cc2C[C@H]1C(=O)N[C@@H]1CCCc2ccccc21)C(C)(C)C` [Example 25, (S)-2-((S)-3,3-Dimethyl-2-((S)-2-(methylamino)propanamido)butanoyl)-N6-((3S,5S)-1-((S)-3,3-dimethyl-2-((S)-2-(methylamino)propanamido)butanoyl)-5-(((R)-1,2,3,4-tetrahydronaphthalen-1-yl)carbamoyl)pyrrolidin-3-yl)-N^3—((R)-1,2,3,4-tetrahydronaphthalen-1-yl)-1,2,3,4-tetrahydroisoquinoline-3,6-dicarboxamide], the IC50 on XIAP BIR2-3 (setting [1]) was found to be 3 nM; on XIAP BIR3 (setting [2]) it was 4 nM.

Regarding `CN[C@@H](C)C(=O)N[C@H](C(=O)N1Cc2ccc(C(=O)N[C@H]3C[C@@H](C(=O)N[C@@H]4CCCc5ccccc54)N(C(=O)[C@@H](NC(=O)[C@H](C)NC)C(C)(C)C)C3)cc2C[C@@H]1C(=O)N[C@@H]1CCCc2ccccc21)C(C)(C)C` [Example 26, (R)-2-((S)-3,3-Dimethyl-2-((S)-2-(methylamino)propanamido)butanoyl)-N6-((3S,5S)-1-((S)-3,3-dimethyl-2-((S)-2-(methylamino)propanamido)butanoyl)-5-(((R)-1,2,3,4-tetrahydronaphthalen-1-yl)carbamoyl)pyrrolidin-3-yl)-N^3—((R)-1,2,3,4-tetrahydronaphthalen-1-yl)-1,2,3,4-tetrahydroisoquinoline-3,6-dicarboxamide], the IC50 at XIAP BIR2-3 (setting [1]) was found to be 196 nM; at XIAP BIR3 (setting [2]) it was 11 nM.

As to `CN[C@@H](C)C(=O)N[C@H](C(=O)N1Cc2cc(NC(=O)[C@H]3C[C@@H](C(=O)N[C@@H]4CCCc5ccccc54)N(C(=O)[C@@H](NC(=O)[C@H](C)NC)C(C)(C)C)C3)ccc2C[C@H]1C(=O)N[C@@H]1CCCc2ccccc21)C(C)(C)C` [Example 27, (2S,4S)-1-((S)-3,3-Dimethyl-2-((S)-2-(methylamino)propanamido)butanoyl)-N^4—((S)-2-((S)-3,3-dimethyl-2-((S)-2-(methylamino)propanamido)butanoyl)-3-(((R)-1,2,3,4-tetrahydronaphthalen-1-yl)carbamoyl)-1,2,3,4-tetrahydroisoquinolin-7-yl)-N^2—((R)-1,2,3,4-tetrahydronaphthalen-1-yl)pyrrolidine-2,4-dicarboxamide], the results for the IC50 against XIAP BIR2-3 and against XIAP BIR3 were 1 nM and 5 nM, respectively.

`CN[C@@H](C)C(=O)N[C@H](C(=O)N1C[C@@H](c2ccc3c(c2)CN(C(=O)[C@@H](NC(=O)[C@H](C)NC)C(C)(C)SCCO)[C@H](C(=O)N[C@@H]2CCCc4ccccc42)C3)C[C@H]1C(=O)N[C@@H]1CCCc2ccccc21)C(C)(C)C` [Example 28, (S)-7-((3R,5S)-1-((S)-3,3-Dimethyl-2-((S)-2-(methylamino)propanamido)butanoyl)-5-(((R)-1,2,3,4-tetrahydronaphthalen-1-yl)carbamoyl)pyrrolidin-3-yl)-2-((R)-3-((2-hydroxyethyl)thio)-3-methyl-2-((S)-2-(methylamino)propanamido)butanoyl)-N—((R)-1,2,3,4-tetrahydronaphthalen-1-yl)-1,2,3,4-tetrahydroisoquinoline-3-carboxamide]: the IC50 on XIAP BIR2-3 (setting [1]) worked out at 2.2 nM; at XIAP BIR3 (setting [2]), 5.1 nM.
